We go through two compounds from patent publication US20260097091A1, “ADMINISTRATION OF GLUTATHIONE TRISULFIDE TO AMELIORATE PERIPHERAL NEUROPATHY” (The General Hospital Corporation, priority 2022, published 2026).

The structures appear in SMILES notation.

One data set relates to mouse model of PIPN. The experiment in a line: hot plate test of thermal hyperalgesia in mouse model of PIPN. In kind it is in vivo, mice (C57BL/6J). The source says: All animal protocols were approved by the Massachusetts General Hospital Institutional Animal Care and Use Committee. Animals were cared for in accordance with the guidelines established by the NIH and the International Association for the Study of Pain [16]. Male C57BL/6J mice (6-7 weeks old) were purchased from the Jackson Laboratory (Bar Harbor, ME, USA). The mice were housed in a 12-hour shift light-control environment from 7 am to […] with ad libitum access to food and water in our animal facility until the time of experiments.
Paclitaxel (Sigma-Aldrich) was dissolved with ethanol and cremophor (1:1) and diluted with normal saline (1:4). Peripheral neuropathy was induced in mice by intraperitoneal (i.p.) administration of 4 mg/kg paclitaxel every other day for a total of 4 injections (cumulative dose of 16 mg/kg), according to a previously described protocol. A stable, crystallized form of GSSSG was produced and provided by Kyowa Hakko Bio CO., LTD. […] The dose of GSSSG was determined based on pilot studies. […]
To assess hyperalgesia, the heat threshold was determined by the hot plate test. […] The test was repeated 2 times after 5 minutes interval by a blinded examiner, and the average time was calculated. The ratio of change from the baseline was calculated from the difference of the latency response time from the baseline divided by the baseline time. […]
(In general: Hot-plate and tail-flick tests time the reaction to a heat stimulus.)

For data set [1], the system named is Nrf2-dependent antioxidant signaling in DRG. The experiment in a line: real-time qPCR of antioxidant genes in lumbar DRG. The format is in vivo, mice. The following applies: 2 hours after single 16 mg/kg paclitaxel i.p. with or without 50 mg/kg GSSSG oral. Here is the method:
Changes in gene expression in lumber dorsal root ganglions (DRG) induced by paclitaxel and GSSSG were examined with real-time qPCR after a single administration of paclitaxel with or without GSSSG. We simultaneously administered 16 mg/kg paclitaxel by intraperitoneal injection and 50 mg/kg GSSSG by oral gavage and examined the mRNA expression 2 hours later. Lumbar DRG were isolated from mice as described previously. Removed DRG were immersed in RNA later (Invitrogen, Cat No. AM7020) at 4° C. overnight. After retrieving from RNA later, they were stored at −80° C. DRGs were homogenized in TRIzol reagent (ThermoFisher Scientific, Cat No. 15596026) and mixed with chloroform. After centrifugation at 14000×g at 4° C. for 15 minutes, the transparent top layer was transferred to a new tube. The samples were mixed with 400 μl of isopropanol and incubated at −20° C. for 20 minutes. After centrifugation at 14000×g at 4° C. for 15 minutes, the pellets were collected, mixed with 70% ethanol, and centrifuged at 14000×g at 4° C. for 10 minutes. The pellets were dried for 10 minutes and incubated with 50 μl of nuclease-free water. Complementary DNA was synthesized using the cDNA Reverse Transcription Kit (Applied Biosystems, Cat No. 4368814) and quantitative PCR was performed by using SYBR green (Applied Biosystems, Cat No. A46109). Relative quantification of gene expression was performed via 2^−ΔΔCT method.
On the technique in general: Real-time PCR tracks product formation cycle by cycle.

As to `N[C@@H](CCC(=O)N[C@@H](CSSSC[C@H](NC(=O)CC[C@H](N)C(=O)O)C(=O)NCC(=O)O)C(=O)NCC(=O)O)C(=O)O` [GSSSG, glutathione trisulfide], in the data set with mouse model of PIPN (GSSSG 50 mg/kg/day oral in paclitaxel-treated mice), the “threshold for thermal hyperalgesia (hot plate test)” value is “not altered”. Moreover, in data set [1], the “Nrf2 mRNA levels” value is recorded as “increased Nrf2 mRNA levels”, the “expression of GCLC” value is listed as “upregulated”, the “expression of HO1” value is given as “upregulated” and the “levels of NQO1 mRNA” value is “modestly increased”.

In the case of `CC(=O)O[C@H]1C(=O)[C@@]2(C)[C@H]([C@H](OC(=O)c3ccccc3)[C@]3(O)C[C@H](OC(=O)[C@H](O)[C@@H](NC(=O)c4ccccc4)c4ccccc4)C(C)=C1C3(C)C)[C@]1(OC(C)=O)CO[C@@H]1C[C@@H]2O` [paclitaxel, Paclitaxel, reference compound], the “thermal hyperalgesia (hot plate test)” value in the data set on mouse model of PIPN (paclitaxel 4 mg/kg i.p. every other day, 4 injections, 4 weeks, vs control) is “induced thermal hyperalgesia”. Moreover, in data set [1], the “Nrf2 mRNA levels” value was “increased Nrf2 mRNA levels”, the “expression of GCLC” value is “not paclitaxel alone”, the “expression of HO1” value was “not paclitaxel alone” and the “levels of NQO1 mRNA” value is recorded as “not paclitaxel alone”.
